In US8119692B2 (priority 2007, dated 2012) one finds Ki data, which are given here for 41 compounds.

For this experiment, the target named is Lethal factor protease (Bacillus anthracis, UniProt P15917). Put plainly: biochemical. The following applies: LF (FRET) Ki^app.
Chain of Lethal factor protease (P15917 34-809 limits assumed): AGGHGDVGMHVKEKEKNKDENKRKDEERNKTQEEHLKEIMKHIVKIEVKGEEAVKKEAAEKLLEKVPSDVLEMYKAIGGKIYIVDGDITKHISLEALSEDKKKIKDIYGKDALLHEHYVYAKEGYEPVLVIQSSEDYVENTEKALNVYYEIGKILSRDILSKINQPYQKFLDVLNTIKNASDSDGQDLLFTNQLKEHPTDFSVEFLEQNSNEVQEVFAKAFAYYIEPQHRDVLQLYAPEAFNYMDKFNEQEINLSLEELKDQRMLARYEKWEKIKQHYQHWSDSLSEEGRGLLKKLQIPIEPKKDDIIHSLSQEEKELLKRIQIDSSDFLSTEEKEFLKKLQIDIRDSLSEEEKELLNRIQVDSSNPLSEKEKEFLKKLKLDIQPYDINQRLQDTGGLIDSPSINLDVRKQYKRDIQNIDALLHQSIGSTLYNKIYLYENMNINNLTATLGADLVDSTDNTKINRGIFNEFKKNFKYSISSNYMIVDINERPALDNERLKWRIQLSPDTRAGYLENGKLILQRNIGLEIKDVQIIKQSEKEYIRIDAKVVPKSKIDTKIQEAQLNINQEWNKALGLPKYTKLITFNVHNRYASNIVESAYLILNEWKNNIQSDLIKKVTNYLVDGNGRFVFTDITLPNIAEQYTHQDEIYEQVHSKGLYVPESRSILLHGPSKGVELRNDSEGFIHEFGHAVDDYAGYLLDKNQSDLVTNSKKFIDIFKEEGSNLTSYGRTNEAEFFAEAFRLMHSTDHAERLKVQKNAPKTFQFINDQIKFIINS
Take `CO[C@H](C[C@H](CCN1CCN(CCCc2ccccc2)CC1)C(=O)NO)c1ccc(F)cc1` [Compound 167959, (2S,4R)-4-(4-fluorophenyl)-N-hydroxy-4-methoxy-2-(2-(4-(3-phenylpropyl)piperazin-1-yl)ethyl)butanamide]: the Ki is 1 µM. As for `COc1cccc(C(CCC(=O)NO)OC)c1` (centres unmarked) [Compound 167458, N-hydroxy-4-methoxy-4-(3-methoxyphenyl)butanamide], the figure is 276 µM; as for `CO[C@H](C[C@H](CCN1CCC[C@H](CO)C1)C(=O)NO)c1ccc(F)cc1` [Compound 168039, (2S,4R)-4-(4-fluorophenyl)-N-hydroxy-2-(2-((S)-3-(hydroxymethyl)piperidin-1-yl)ethyl)-4-methoxybutanamide], 0.58 µM; as for `CO[C@H](C[C@H](CCN1CCN(c2ccccc2)CC1)C(=O)NO)c1ccc(F)cc1` [Compound 167986, (2S,4R)-4-(4-fluorophenyl)-N-hydroxy-4-methoxy-2-(2-(4-phenylpiperazin-1-yl)ethyl)butanamide], 2.22 µM.

Take `CO[C@H](C[C@H](CCN1CCN(CCc2ccccc2)CC1)C(=O)NO)c1ccc(F)cc1` [Compound 167958, (2S,4R)-4-(4-fluorophenyl)-N-hydroxy-4-methoxy-2-(2-(4-phenethylpiperazin-1-yl)ethyl)butanamide]: the Ki amounted to 2.4 µM. As for `CO[C@H](C[C@H](CCCc1ccccc1)C(=O)NO)c1ccc(F)cc1` [Compound 167337, (2S)-2-((2R)-2-(4-fluorophenyl)-2-methoxyethyl)-N-hydroxy-5-phenylpentanamide], the figure is 7.8 µM; as for `CSC(CCC(=O)NO)c1ccc(F)cc1` (racemic) [Compound 167366, 4-(4-Fluoro-phenyl)-N-hydroxy-4-methylsulfanyl-butyramide], 10.9 µM; as for `CO[C@H](C[C@H](CCN1CCC(Cc2ccccc2)CC1)C(=O)NO)c1ccc(F)cc1` [Compound 167940, (2S,4R)-2-(2-(4-benzylpiperidin-1-yl)ethyl)-4-(4-fluorophenyl)-N-hydroxy-4-methoxybutanamide], 0.4 µM.

`COC(CCC(=O)NO)c1cccc(C)c1C` (centres unmarked) [Compound 167495, 4-(2,3-dimethylphenyl)-N-hydroxy-4-methoxybutanamide] displayed a Ki of 269 µM. On to `CO[C@H](C[C@H](C/C=C/c1ccccc1)C(=O)NO)c1ccc(F)cc1` [Compound 167354], for which the Ki was determined as 9.3 µM.

Compound `COC(CCC(=O)NO)c1cccc(Cl)c1` (centres unmarked) [Compound 167461, 4-(3-chlorophenyl)-N-hydroxy-4-methoxybutanamide] came in with a Ki of 87.4 µM. In the case of `CO[C@H](C[C@H](CCN1CCCC1)C(=O)NO)c1ccc(F)cc1` [Compound 167923, (2S,4R)-4-(4-fluorophenyl)-N-hydroxy-4-methoxy-2-(2-(pyrrolidin-1-yl)ethyl)butanamide] it was 0.97 µM. In the case of `CO[C@H](C[C@H](CCN1CCC[C@@H](CO)C1)C(=O)NO)c1ccc(F)cc1` [Compound 168059, (2S,4R)-4-(4-fluorophenyl)-N-hydroxy-2-(2-((R)-3-(hydroxymethyl)piperidin-1-yl)ethyl)-4-methoxybutanamide] it was 0.6 µM; in that of `CO[C@H](C[C@H](CCCCNCc1ccc(C)o1)C(=O)NO)c1ccc(F)cc1` [Compound 168228, (S)-2-((R)-2-(4-fluorophenyl)-2-methoxyethyl)-N-hydroxy-6-((5-methylfuran-2-yl)methylamino)hexanamide], 2.8 µM. In the case of `CO[C@H](C[C@H](CCN1CCN(Cc2ccc(F)c(C)c2)CC1)C(=O)NO)c1ccc(F)cc1` [Compound 167960, (2S,4R)-2-(2-(4-(4-fluoro-3-methylbenzyl)piperazin-1-yl)ethyl)-4-(4-fluorophenyl)-N-hydroxy-4-methoxybutanamide] it was 0.97 µM; in that of `CO[C@H](C[C@H](CCN1CCOCC1)C(=O)NO)c1ccc(F)cc1` [Compound 167829, (2S,4R)-4-(4-fluorophenyl)-N-hydroxy-4-methoxy-2-(2-morpholinoethyl)butanamide], 5.7 µM; in that of `COC(CCC(=O)NO)c1ccc(F)cc1` (centres unmarked) [Compound 167157, 4-(4-fluorophenyl)-N-hydroxy-4-methoxybutanamide], 11.7 µM. With `CCCC[C@H](C[C@H](OC)c1ccc(F)cc1)C(=O)NO` [Compound 167389, (2R)-2-((2S)-2-(4-fluorophenyl)-2-methoxyethyl)-N-hydroxyhexanamide], the Ki was 75.6 µM. For `CO[C@H](C[C@H](CCN1CCC[C@H](CN2CCCCC2)C1)C(=O)NO)c1ccc(F)cc1` [Compound 168044, (2S,4R)-4-(4-fluorophenyl)-N-hydroxy-4-methoxy-2-(2-((R)-3-(piperidin-1-ylmethyl)piperidin-1-yl)ethyl)butanamide], the Ki turned out to be 1.92 µM. The compound `CO[C@H](C[C@H](CCCCNc1ccc(F)cc1)C(=O)NO)c1ccc(F)cc1` [Compound 168229] yielded a Ki of 2.8 µM. For `CO[C@H](C[C@H](CCN1CCCC(C(=O)O)C1)C(=O)NO)c1ccc(F)cc1` (stereo partly drawn) [Compound 167924, 1-((3S,5R)-5-(4-fluorophenyl)-3-(hydroxycarbamoyl)-5-methoxypentyl)piperidine-3-carboxylic acid], the Ki is 9 µM. The compound `C=CC[C@@H](C[C@@H](OC)c1ccc(F)c(C)c1)C(=O)NO` [Compound 167673, (S)-2-((R)-2-(4-Fluoro-3-methylphenyl)-2-methoxyethyl)-N-hydroxypent-4-enamide] showed a Ki of 6.6 µM.

The compound `COC(CCC(=O)NO)c1ccccc1C` (centres unmarked) [Compound 167540, N-hydroxy-4-methoxy-4-o-tolylbutanamide] showed a Ki of 152 µM. Regarding `COC(CCC(=O)NO)c1cccc(C(F)(F)F)c1` (centres unmarked) [Compound 167492, N-hydroxy-4-methoxy-4-(3-(trifluoromethyl)phenyl)butanamide], the Ki was over 300 µM. As for `CO[C@H](C[C@H](CCN(Cc1ccccc1)C(C)C)C(=O)NO)c1ccc(F)cc1` [Compound 167784, (2S,4R)-2-(2-(benzyl(isopropyl)amino)ethyl)-4-(4-fluorophenyl)-N-hydroxy-4-methoxybutanamide], the figure is 14 µM; as for `CO[C@H](C[C@H](CCN1CCC(c2ccccc2)CC1)C(=O)NO)c1ccc(F)cc1` [Compound 167987, (2S,4R)-4-(4-fluorophenyl)-N-hydroxy-4-methoxy-2-(2-(4-phenylpiperidin-1-yl)ethyl)butanamide], 0.76 µM. In the case of `COC(CCC(=O)NO)c1ccc(C(F)(F)F)cc1` (centres unmarked) [Compound 167511, N-hydroxy-4-methoxy-4-(4-(trifluoromethyl)phenyl)butanamide] it was 240 µM. Take `CO[C@H](C[C@H](Cc1ccccc1)C(=O)NO)c1ccc(F)cc1` [Compound 167298]: the Ki amounted to 89.5 µM. Consider `CO[C@@H](C[C@H](CCCc1ccccc1)C(=O)NO)c1ccc(F)cc1` [Compound 167408], for which the Ki is over 300 µM. In the case of `CO[C@H](C[C@H](CCN(C)c1ccc(Br)cc1)C(=O)NO)c1ccc(F)cc1` [Compound 168013, (2S,4R)-2-(2-((4-bromophenyl)(methyl)amino)ethyl)-4-(4-fluorophenyl)-N-hydroxy-4-methoxybutanamide] it was 1.8 µM; in that of `COC(CCC(=O)NO)c1ccc(C)cc1C` (centres unmarked) [Compound 167541, 4-(2,4-dimethylphenyl)-N-hydroxy-4-methoxybutanamide], 134 µM; in that of `C=CC[C@@H](C[C@@H](OC)c1ccc(F)cc1)C(=O)NO` [Compound 167434, (2S)-2-((2R)-2-(4-fluorophenyl)-2-methoxyethyl)-N-hydroxypent-4-enamide], 1.16 µM. In the case of `COC(CCC(=O)NO)c1ccccc1F` (centres unmarked) [Compound 167564, 4-(2-fluorophenyl)-N-hydroxy-4-methoxybutanamide] it was 52.4 µM; in that of `CO[C@H](C[C@H](CCN(C)c1ccccc1)C(=O)NO)c1ccc(F)cc1` [Compound 168028, (2S,4R)-4-(4-fluorophenyl)-N-hydroxy-4-methoxy-2-(2-(methyl(phenyl)amino)ethyl)butanamide], 1.82 µM; in that of `CO[C@H](C[C@H](CCN(C)CCCc1ccccc1)C(=O)NO)c1ccc(F)cc1` [Compound 167953, (2S,4R)-4-(4-fluorophenyl)-N-hydroxy-4-methoxy-2-(2-(methyl(3-phenylpropyl)amino)ethyl)butanamide], 0.23 µM. As for `CO[C@H](C[C@H](CCN(C)c1ccc(-c2ccc(F)c(C)c2)cc1)C(=O)NO)c1ccc(F)cc1` [Compound 168038, (2S,4R)-2-(2-((4′-fluoro-3′-methylbiphenyl-4-yl)(methyl)amino)ethyl)-4-(4-fluorophenyl)-N-hydroxy-4-methoxybutanamide], the figure is 0.91 µM; as for `CO[C@H](C[C@H](C)C(=O)NO)c1ccc(F)cc1` [Compound 167297, (2S,4R)-4-(4-fluorophenyl)-N-hydroxy-4-methoxy-2-methylbutanamide], 2.3 µM.

For the compound `CO[C@H](C[C@H](CCN1CCCCCCC1)C(=O)NO)c1ccc(F)cc1` [Compound 167912, (2S,4R)-2-(2-(azocan-1-yl)ethyl)-4-(4-fluorophenyl)-N-hydroxy-4-methoxybutanamide], the Ki was 284 µM.

Consider `CO[C@H](C[C@H](CCN(C)CCOc1ccccc1)C(=O)NO)c1ccc(F)cc1` [Compound 167890, (2S,4R)-4-(4-fluorophenyl)-N-hydroxy-4-methoxy-2-(2-(methyl(2-phenoxyethyl)amino)ethyl)butanamide], for which the Ki amounted to 1.6 µM. In the case of `CO[C@H](C[C@H](CCN1CCN(CC2CCCCC2)CC1)C(=O)NO)c1ccc(F)cc1` [Compound 167961, (2S,4R)-2-(2-(4-(cyclohexylmethyl)piperazin-1-yl)ethyl)-4-(4-fluorophenyl)-N-hydroxy-4-methoxybutanamide] it was 1.8 µM; in that of `CO[C@H](C[C@H](CCN1CCN(C(=O)OC(C)(C)C)CC1)C(=O)NO)c1ccc(F)cc1` [Compound 167944, tert-butyl 4-((3S,5R)-5-(4-fluorophenyl)-3-(hydroxycarbamoyl)-5-methoxypentyl)piperazine-1-carboxylate], 2.5 µM.
